Laboratory results from patent publication US5061706A, “2,3-quinoxalinediones for use as neuroleptics” (priority 1988, dated 1991).
Values after ≈ are worked out from the molar mass of the structure shown. One block for each compound: values may come before it.

What was measured:
[1] = tested on: NMDA (N-methyl-D-aspartate) receptors; settings: in words, literature; cited from earlier work
[2] = tested on: kainate receptors; settings: in words, literature; cited from earlier work
[3] = tested on: quisqualate receptors; settings: in words, literature; cited from earlier work
[4] = biological target: quisqualate type receptors; test: 3H-AMPA binding (displacement of 3H-AMPA from quisqualate type receptors, rat cerebral cortical membrane homogenate); settings: concentration causing 50% displacement of specific 3H-AMPA binding; Hill analysis; pH 7.1, 0° C., 30 min
Procedure: The pharmacological properties of the compounds of the present invention can be illustrated by determining their capability for displacing radioactively labelled 2-amino-3-hydroxy-5-methyl-4-isoxazolepropionic acid (AMPA) from the quisqualate type receptors.
The displacement activity of the compounds may be shown by determining the IC50 value which represents the concentration (μg/ml) which causes a displacement of 50% of the specific binding of ^3 H-AMPA.
500 μl of thawed rat cerebral cortical membrane homogenate in Tris-HCl (30 mM), CaCl2 (2.5 mM) and KSCN (100 mM) pH 7.1 were incubated at 0° C. for 30 min. with 25 μl ^3 H-AMPA (5 nM final concentration) and the test compound and buffer. Nonspecific binding was determined by incubation with L-glutamic acid (600 μM final concentration). The binding reaction was terminated by adding 5 ml of ice-cold buffer followed by filtration through Whatman GF/C glass fibre filters and 2×5 ml wash with ice-cold buffer. Bound radioactivity was measured by scintillation counting. IC50 was determined by Hill analysis of at least four concentrations of test compound.

[5] = biological target: quisqualic acid stimulated 3H-GABA efflux from cultured cortical neurones (quisqualate receptors); test: Release experiments: antagonism of quisqualic acid stimulated 3H-GABA efflux from cultured cortical neurones; type: cell-based, mouse; settings: Table 1 Ki; test not stated
Procedure: The pharmacological properties of the compounds of the present invention can be illustrated by determining their capability for displacing radioactively labelled 2-amino-3-hydroxy-5-methyl-4-isoxazolepropionic acid (AMPA) from the quisqualate type receptors. […]
Cerebral cortices of 16 day old mouse embryos are chopped in 0.4×0.4 mm cubes. The tissue is dissociated by mild trypsinization (0.1% (wt/vol) trypsin, 37° C., 15 min) and subsequently inoculated into poly-L-lysine-coated 3 cm Petri dishes containing a slightly modified DMEM (24.5 mM KCl, 30 mM glucose) supplemented with p-aminobenzoate (7 μM), insulin (100 mU/1) and 10% (vol/vol) horse serum. Cells are maintained in culture for 5-7 days with the addition of the antimitotic agent cytosine arbinoside (40 μM) from day 2 in vitro to prevent glial proliferation. For further details and references see Drejer et al. (Exp. Brain Res. 47, 259 (1982)).
Release experiments are performed using the model described by Drejer et al. (Life Sci. 38, 2077 (1986)). Cerebral cortex interneurons cultured in Petri dishes (30 mm) are added 100 μM gamma-vinyl-GABA one hour before the experiment in order to inhibit degradation of GABA in the neurons. 30 min. before the experiment 5 μCi ^3 H-GABA is added to each culture and after this preloading period the cell monolayer at the bottom of the dish is covered with a piece of nylon mesh to protect the cells against mechanical damage and to facilitate dispersion of medium over the cell layer. The preloading medium is removed and the Petri dishes are placed in a superfusion system. This system consists of a peristaltic pump continuously delivering thermostated 37° C. superfusion medium (HEPES buffered saline (HBS): 10 mM HEPES, 135 mM NaCl, 5 mM KCl, 0.6 mM MGSO4, 1.0 mM CaCl2 and 6 mM D-glucose; pH 7.4) from a reservoir to the top of the slightly tilted Petri dish. The medium is continuously collected from the lower part of the dish and delivered to a fraction collector. Initially, the cells are superfused with HBS for 15 min. (flow rate 2 ml/min.). The cells are stimulated for 30 sec. every 4 min. by changing the superfusion medium from HBS to a corresponding medium containing quisqualate and test compound. The release of ^3 H-GABA in the presence of quisqualate (stimulated release in cpm) are corrected for the mean basal release (Cpm) before and after the stimulation.

SMILES: O=C(O)[C@@H]1CCCN[C@H]1C(=O)O (relative stereo) [trans-2,3-PDA, trans-2,3-piperidine dicarboxylic acid]
agonist or antagonist activity on NMDA receptors [1]: strong to moderate agonist activity

SMILES: NC(CCC(=O)NCC(=O)O)C(=O)O (stereo not drawn) [3-glutamyl-glycine]
antagonism / inhibition of binding at kainate receptors [2]: some selectivity for kainate receptors

SMILES: Cc1onc(O)c1CC(N)C(=O)O (stereo not drawn) [AMPA, 2-amino-3-hydroxy-5-methyl-4-isoxazolepropionic acid]
agonist or antagonist activity on quisqualate receptors [3]: potent agonists

SMILES: N[C@H](CCCC(=O)O)C(=O)O [D-2-amino-adipic acid]
agonist or antagonist activity on NMDA receptors [1]: moderate antagonist activity

SMILES: N[C@H](CCCCCP(=O)(O)O)C(=O)O [D-APH, 2-amino-7-phosphonoheptanoic acid]
agonist or antagonist activity on NMDA receptors [1]: most potent and selective antagonists

SMILES: N[C@H](CCCP(=O)(O)O)C(=O)O [D-APV, 2-amino-5-phosphono-valeric acid]
agonist or antagonist activity on NMDA receptors [1]: most potent and selective antagonists

SMILES: N[C@H](CCC(=O)O)C(=O)O [D-glutamic acid]
agonist or antagonist activity on NMDA receptors [1]: strong to moderate agonist activity

IC50 [4]: 0.15 µg/mL (≈ 0.553 µM)
Ki [5]: 0.08 µg/mL (≈ 0.295 µM)
SMILES: N#Cc1cc2c(cc1C(F)(F)F)[nH]c(=O)c(=O)n2O [Example 6 d, 7-Cyano-1-hydroxy-6-trifluoromethylquinoxaline-2,3(1H,4H)-dione]

IC50 [4]: 0.37 µg/mL (≈ 1.32 µM)
Ki [5]: 0.12 µg/mL (≈ 0.428 µM)
SMILES: O=c1[nH]c2cc(C(F)(F)F)c(Cl)cc2n(O)c1=O [Example 30 d, 7-chloro-1-hydroxy-6-trifluoromethylquinoxaline-2,3(1H,4H)-dione]

IC50 [4]: 0.14 µg/mL (≈ 0.43 µM)
Ki [5]: 0.02 µg/mL (≈ 0.0615 µM)
SMILES: NS(=O)(=O)c1cc2c(cc1C(F)(F)F)[nH]c(=O)c(=O)n2O [Example 33 d, 1-Hydroxy-7-sulfamoyl-6-trifluoromethylquinoxaline-2,3(1H,4H)-dione]

IC50 [4]: 0.09 µg/mL (≈ 0.367 µM)
Ki [5]: 0.27 µg/mL (≈ 1.1 µM)
SMILES: CC(=O)c1cc2c(cc1C#N)[nH]c(=O)c(=O)n2O [Example 34 e, 7-Acetyl-6-cyano-1-hydroxyquinoxaline-2,3(1H,4H)-dione]

SMILES: CCOC(=O)CC[C@H](N)C(=O)OCC [GDEE, Glutamic acid diethyl ester]
agonist or antagonist activity on quisqualate receptors [3]: selective but very weak antagonist

SMILES: N[C@H](C(=O)O)c1cc(=O)[nH]o1 [Ibotenic acid]
agonist or antagonist activity on NMDA receptors [1]: strong to moderate agonist activity

SMILES: N[C@@H](CCC(=O)O)C(=O)O [L-glutamic acid]
agonist or antagonist activity on quisqualate receptors [3]: potent agonists

SMILES: N[C@@H](CCS(=O)(=O)O)C(=O)O [L-homocysteic acid]
agonist or antagonist activity on NMDA receptors [1]: strong to moderate agonist activity

SMILES: N[C@H](CCC[C@H](N)C(=O)O)C(=O)O [diaminopimelic acid]
agonist or antagonist activity on NMDA receptors [1]: moderate antagonist activity

SMILES: N[C@@H](Cn1oc(=O)[nH]c1=O)C(=O)O [quisqualic acid]
agonist or antagonist activity on quisqualate receptors [3]: activated selectively
